# Laboratory results as given in US20220331357A1, “COMPOSITIONS AND METHODS FOR THE PREVENTION AND TREATMENT OF PANCREATITIS” (Duke University, priority 2019, published 2022).
# Read-outs that look alike come from different tables or passages of the source.
# Legend:
# [1] = tested on: pressure-induced pancreatitis; assay: ERCP pressure-induced pancreatitis, nicotinic agonists; assay type: in vivo
# Description: GTS-21 (DMXBA) is a derivative of the natural product anabaseine that acts as a partial agonist at neural nicotinic acetylcholine receptors. GTS-21 is 3-2,4-dimethoxybenzylidene anabaseine.
# caerulein-treated mice = assay: Caerulein-induced pancreatitis in mice; assay type: in vivo; details: 250 μg/g Na2HPO4 1 hour after first of 6 hourly caerulein injections (50 ng/g); vs normal saline
# Description: Caerulein-induced pancreatitis in mice is an established model of acute experimental pancreatitis. Hyperstimulation of the pancreas by cholecystokinin or its analogue caerulein is a commonly used model of experimental acute pancreatitis in rodents. Caerulein produces mild to moderate, non-fatal pancreatitis that resolves spontaneously.
# As shown in FIGS. 3A-3C, phosphate supplementation reduced all parameters of pancreatitis following caerulein administration including serum amylase levels (FIG. 3A), pancreatic MPO levels (FIG. 3B) and pancreatic histology (FIG. 3C). Specifically, mice (C56BL/6 adult mice) were treated with 6 hourly injections of caerulein sulfate (50 ng/g) by intraperitoneal injection. Sodium phosphate (250 μg/g Na2HPO4) and normal saline (NS) were given 1 hour after the first injection. The study was terminated 1 hour after the last caerulein injection at which time, blood and pancreas tissue are collected for measurements of serum amylase, and pancreatic edema, MPO, and histological pancreatitis severity. Pancreatic myeloperoxidase (MPO) and serum amylase levels were measured by commercially available assays. **P<0.01 vs. normal saline in caerulein-treated mice.
# [2] = tested on: isolated mouse pancreatic acini; assay: Caerulein-induced injury in isolated pancreatic acini; assay type: cell-based; details: for caerulein-induced damage (release of trypsin, IL-1β and LDH): 1, 5 or 10 mM sodium phosphate, pH 7.4, caerulein 10 nM for 30 minutes
# Description: To evaluate the effects of phosphate on acinar cell function pancreatic acini in vitro were examined High concentrations of caerulein in vitro induce pancreatic injury similar to the effects observed in vivo and this method has been used to study direct effects on pancreatic acinar cells. Specifically, caerulein causes pancreatitis by hyperstimulating the acinar cells through the CCK1 receptor. In isolated pancreatic acini, caerulein causes trypsin activation, generation of the proinflammatory cytokine cytosolic […], and cell necrosis as manifest by LDH release. Each of these pathological results is seen with caerulein hyperstimulation in vivo.
# It was observed that phosphate supplementation, independent of its buffering effects, reduced caerulein-induced LDH release, a marker of cell damage (FIG. 4). In addition, it was sought to determine if lack of ATP contributes to pancreatitis and whether the protective effects of phosphate are through restoration of intracellular ATP levels. […] Isolated mouse pancreatic acini were treated with caerulein in buffer containing Na2HPO4 concentrations of 1-10 mM. Supernatant LDH was measured by commercial LDH assay. Cytosolic ATP levels were measured using a commercially available fluorometric assay. *P<0.05, **<0.01, ***<0.001.
# All solutions were adjusted to pH 7.4. A supramaximal concentration of caerulein (10 nM) was added for 30 minutes as indicated after which media were analyzed for release of trypsin, IL-1β and LDH. (*P<0.05, **P<0.01, ***P<0.001).
# Mitochondrial membrane potential was measured in isolated pancreatic acini using tetramethylrhodamine ethyl ester (TMRE) fluorescence.
# Specifically, isolated pancreatic acini were loaded with the mitochondrial fluorescent dye TMRE and incubated in phosphate-free buffer with a supramaximal concentration of caerulein (10 nM). TMRE fluorescence and intracellular ATP levels were measure after 30 minutes. *P<0.05, ****P<0.0001.
# Isolated pancreatic acini loaded with TMRE were incubated in buffer with 0 or 5 mM phosphate (left panel). Effects of increasing phosphate concentrations on ATP production are shown in the right panel. *P<0.05, **P<0.01, ****P<0.0001. These findings illustrate the requirement for Pi in maintaining and restoring mitochondrial function and ATP synthesis under the stress of caerulein hyperstimulation.
# [3] = tested on: pancreatic acini from C57BL/6J mice; assay type: cell-based; details: 50 mM ethanol
# Experimental: In order to determine the effect of ethanol exposure and phosphate levels on acinar cell function, studies were conducted in vitro. Pancreata was harvested from ND-fed and LPD-fed C57BL/6J mice and isolated acinar cells using phosphate-free buffer solutions. Acinar cell function was assessed at various concentrations of ethanol (0-50 mM).
# Next, it was investigated as to whether phosphate supplementation could preserve pancreatic acinar cell function. Pancreatic acini from LPD-fed mice were isolated in phosphate-free buffer and treated with 50 mM ethanol and 0-5 mM Na2HPO4.
# To further explore the mechanism underlying the effect of phosphate on ethanol-induced acinar cell dysfunction, cellular ATP content and mitochondrial function was investigated.
# In order to determine if phosphate sensitizes mitochondria to the effects of alcohol, we measured TMRE fluorescence intensity, a measure of mitochondrial membrane potential that indicates normal mitochondrial function.
# Pancreatic acini from LPD-fed mice were again isolated in phosphate-free buffer and treated with 50 mM ethanol and 0-5 mM Na2HPO4.
# Piezol = target: T1, Piezol (Mus musculus, UniProt E2JF22); assay: Yoda1 activation of Piezol in pancreatic acinar cells; assay type: cell-based, mice
# T1 construct: endogenous in cells; host or cells: isolated pancreatic acini / acinar cells (primary, mouse)
# T1 sequence (E2JF22 whole entry): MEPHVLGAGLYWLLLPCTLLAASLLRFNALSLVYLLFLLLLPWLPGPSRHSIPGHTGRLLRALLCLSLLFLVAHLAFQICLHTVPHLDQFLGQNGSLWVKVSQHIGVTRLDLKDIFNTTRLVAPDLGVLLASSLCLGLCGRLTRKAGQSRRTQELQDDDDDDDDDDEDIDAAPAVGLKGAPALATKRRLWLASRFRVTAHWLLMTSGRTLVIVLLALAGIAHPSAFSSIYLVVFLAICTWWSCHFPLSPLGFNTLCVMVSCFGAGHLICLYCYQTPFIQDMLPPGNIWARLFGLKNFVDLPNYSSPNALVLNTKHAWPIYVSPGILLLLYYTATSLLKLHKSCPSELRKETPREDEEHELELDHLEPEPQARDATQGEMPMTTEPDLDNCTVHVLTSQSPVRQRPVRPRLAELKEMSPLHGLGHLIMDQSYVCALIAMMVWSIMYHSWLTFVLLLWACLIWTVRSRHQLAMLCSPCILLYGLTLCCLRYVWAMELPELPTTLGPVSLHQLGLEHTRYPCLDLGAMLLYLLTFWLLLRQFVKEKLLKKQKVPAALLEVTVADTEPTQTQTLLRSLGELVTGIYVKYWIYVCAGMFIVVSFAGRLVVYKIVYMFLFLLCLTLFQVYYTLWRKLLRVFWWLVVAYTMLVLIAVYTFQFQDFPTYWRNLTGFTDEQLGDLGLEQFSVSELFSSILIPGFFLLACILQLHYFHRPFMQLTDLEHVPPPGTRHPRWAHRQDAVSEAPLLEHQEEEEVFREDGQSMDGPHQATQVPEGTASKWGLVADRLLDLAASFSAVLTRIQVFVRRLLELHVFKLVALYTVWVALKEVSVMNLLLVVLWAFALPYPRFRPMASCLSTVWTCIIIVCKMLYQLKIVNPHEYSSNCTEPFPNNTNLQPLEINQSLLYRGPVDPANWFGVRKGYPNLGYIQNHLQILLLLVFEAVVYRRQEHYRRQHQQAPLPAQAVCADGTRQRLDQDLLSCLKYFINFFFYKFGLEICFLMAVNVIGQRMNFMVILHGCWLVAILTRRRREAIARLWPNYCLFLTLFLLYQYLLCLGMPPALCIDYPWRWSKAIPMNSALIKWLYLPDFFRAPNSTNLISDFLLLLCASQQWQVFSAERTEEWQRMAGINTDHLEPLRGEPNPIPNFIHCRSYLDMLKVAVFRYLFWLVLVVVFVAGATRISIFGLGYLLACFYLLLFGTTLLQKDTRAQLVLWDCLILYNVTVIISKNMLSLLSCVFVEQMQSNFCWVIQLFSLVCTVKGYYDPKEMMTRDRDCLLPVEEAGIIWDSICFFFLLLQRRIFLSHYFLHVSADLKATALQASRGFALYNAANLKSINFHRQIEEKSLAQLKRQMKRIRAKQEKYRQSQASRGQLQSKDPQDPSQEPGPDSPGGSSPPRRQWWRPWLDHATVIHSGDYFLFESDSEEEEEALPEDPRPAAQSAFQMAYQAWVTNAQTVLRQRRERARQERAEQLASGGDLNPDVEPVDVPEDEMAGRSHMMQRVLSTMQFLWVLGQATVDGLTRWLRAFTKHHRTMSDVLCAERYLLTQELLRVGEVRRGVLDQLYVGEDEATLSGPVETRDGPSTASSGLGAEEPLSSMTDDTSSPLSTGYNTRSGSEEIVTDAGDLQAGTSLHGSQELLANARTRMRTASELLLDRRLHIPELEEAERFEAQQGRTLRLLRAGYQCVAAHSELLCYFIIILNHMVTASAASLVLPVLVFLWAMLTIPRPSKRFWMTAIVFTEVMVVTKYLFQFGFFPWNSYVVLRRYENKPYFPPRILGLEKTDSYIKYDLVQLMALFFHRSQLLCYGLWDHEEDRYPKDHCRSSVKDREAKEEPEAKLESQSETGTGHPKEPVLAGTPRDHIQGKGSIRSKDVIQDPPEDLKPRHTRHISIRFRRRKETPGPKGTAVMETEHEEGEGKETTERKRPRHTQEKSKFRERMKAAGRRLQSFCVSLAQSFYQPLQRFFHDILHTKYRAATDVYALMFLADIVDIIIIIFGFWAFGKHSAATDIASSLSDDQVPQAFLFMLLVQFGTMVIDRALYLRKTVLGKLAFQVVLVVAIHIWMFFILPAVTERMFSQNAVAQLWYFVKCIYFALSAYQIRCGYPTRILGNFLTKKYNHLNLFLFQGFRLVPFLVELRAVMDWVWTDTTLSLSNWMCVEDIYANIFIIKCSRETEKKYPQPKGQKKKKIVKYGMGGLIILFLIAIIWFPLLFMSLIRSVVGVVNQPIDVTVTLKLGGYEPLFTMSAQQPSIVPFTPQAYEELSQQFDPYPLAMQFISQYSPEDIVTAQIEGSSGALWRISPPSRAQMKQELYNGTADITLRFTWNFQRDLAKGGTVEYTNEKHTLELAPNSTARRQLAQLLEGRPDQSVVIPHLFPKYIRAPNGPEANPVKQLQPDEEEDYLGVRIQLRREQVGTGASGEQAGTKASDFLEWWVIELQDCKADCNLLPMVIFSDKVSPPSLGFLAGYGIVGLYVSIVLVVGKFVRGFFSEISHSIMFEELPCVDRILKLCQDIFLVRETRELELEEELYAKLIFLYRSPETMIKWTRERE
# Experimental: Pathological activation of Piezol leads to [Ca^2+]i overload, mitochondrial dysfunction, trypsinogen activation, and acinar cell necrosis. Moreover, Piezol activation explains how elevation of intrapancreatic duct pressure (e.g., ERCP or gallstone impaction) causes pancreatitis. Piezol can be activated by mechanical pushing or shear stress. A method for studying the effects of shear stress on isolated pancreatic acini in vitro was developed. Pancreatic acini are cultured on Matrigel and placed into a fluid flow chamber. Cells can be loaded with either the calcium sensitive dye, Calcium 6-QF (Molecular Devices), or the active trypsin enzyme substrate BZiPAR [rhodamine 110, bis(CBZ-L-isoleucyl-L-prolyl-L-arginine amide)] (10 μM) and imaged using a fluorescence microscope while fluid flow is regulated to control the level of shear stress.
# As shown in FIG. 11(A)-(C), subjecting acinar cells to fluid shear stress at 12 dyne/cm^2 produced a prolonged increase in [Ca^2+]i similar to that seen with supramaximal, pathological concentrations of caerulein and was sufficient to cause trypsin activation. Shear pressure also led to mitochondrial membrane depolarization indicating mitochondrial dysfunction. These effects are specific for Piezol since changes were not observed in Piezol1^aci knockout mice. Yoda1 is a selective agonist for Piezol and can be used to simulate pressure by chemically activating Piezol. […] In order to determine if phosphate might protect against pressure-induced pancreatitis, we observed that phosphate supplementation reduced Yoda1-stimulated elevations in [Ca^2+]i and LDH release.
# [4] = tested on: ERCP pancreatitis in mice; assay: ERCP pancreatitis mouse model (retrograde pancreatic duct infusion); assay type: in vivo; details: mice on low phosphate diet; 200 μg/g intraperitoneal 1 and 4 hours after induction; 24 hours
# Description: For this study, a mouse model of this form of pancreatitis was employed.
# [5] = tested on: ethanol-induced pancreatitis in mice
# Description: These findings raise the question of whether phosphate deficiency contributes to the progression of pancreatitis. This may be particularly relevant to alcohol-induced pancreatitis, given that alcoholic patients are susceptible to hypophosphatemia due to nutritional deficiencies and the effects of alcohol ingestion on phosphate absorption. Therefore, it was hypothesized that low phosphate levels may be predispose to alcohol-induced pancreatic injury. To test this hypothesis, we placed mice on a low phosphate diet and determined their susceptibility to ethanol. Animals were placed on a chow diet containing low amounts of phosphate (Pi) for three weeks. The low phosphate diet (Envigo #TD.140659) was comprised of 0.02% Pi compared to normal chow diet which contained 1% Pi. Serum levels of phosphate declined in mice on a low phosphate diet from normal values of 2.2 mM to 1.4 mM (FIG. 12). In order to determine if the diet rendered mice more sensitive to ethanol, mice were administered ethanol by orogastric gavage at […] (30% ethanol at 10 mL/kg) daily for five days (Control mice were gavaged with water). Mice were euthanized 12 hours after the last dose of ethanol. The pancreatitis severity scoring system is a composite of edema, necrosis, inflammatory cell infiltration and hemorrhage severity as previously published. […]
# [6] = LPD-derived acini, phosphate-free buffer
# [7] = ERCP pressure-induced pancreatic inflammation
# [8] = caerulein 10 nM, phosphate-free buffer, 30 minutes
molecule,measurement,setting,value
"COc1ccc(/C=C2\CCCN=C2c2cccnc2)c(OC)c1 [GTS-21, 3-2,4-dimethoxybenzylidene anabaseine]",protection of the pancreas against pressure-induced pancreatitis,[1]; prior splenectomy,abolished
same,protection against pressure-induced acute pancreatitis,[1]; splenocytes depleted of T cells,do not protect
same,protection of the pancreas against pressure-induced pancreatitis,[1]; systemic administration,significantly protected
O=P([O-])([O-])O.[Na+].[Na+] [Na2HPO4],pancreatic MPO levels,caerulein-treated mice,reduced
same,pancreatic histology,caerulein-treated mice,reduced
same,serum amylase levels,caerulein-treated mice,reduced
same,caerulein-induced LDH release,[2]; buffer containing Na2HPO4 1-10 mM,reduced
same,cytosolic ATP levels,"[2]; caerulein-treated acini, Na2HPO4 1-10 mM",restored ATP levels in a dose-dependent fashion
same,ATP levels,"[3]; LPD acini, 0-5 mM Na2HPO4",significantly increased
same,TMRE fluorescence intensity,"[3]; LPD acini, 0-5 mM Na2HPO4",markedly improved
same,LDH,"[3]; LPD acini, 5 mM Na2HPO4",significantly decreased
same,trypsin activity,"[3]; LPD acini, 5 mM Na2HPO4",significantly decreased
O=P([O-])(O)O.[Na+] [NaH2PO4],"caerulein-induced damage (release of trypsin, IL-1β and LDH)",[2],protects
same,mitochondrial function (TMRE fluorescence),"[2]; caerulein hyperstimulation, 0 or 5 mM phosphate",dose-dependently restored
same,ATP synthesis,"[2]; caerulein hyperstimulation, increasing phosphate concentrations",dose-dependently restored
Clc1cccc(Cl)c1CSc1nnc(-c2cnccn2)s1 [Yoda1],LDH release,Piezol; Yoda1 25 μM,increased
same,[Ca2+]i,Piezol; Yoda1 25 μM,caused an elevation
CCO [ethanol],TMRE fluorescence intensity,[3]; LPD acini,significantly decreased
same,total cellular ATP levels,[3]; LPD-derived acini,significantly decreased
same,Lactate dehydrogenase (LDH),[3]; [6],significantly increased
same,trypsin activity,[3]; [6],significantly increased
same,total cellular ATP levels,[3]; ND-derived acini,not observed
same,LDH and trypsin activity,[3]; acini from mice on normal diet (ND),not seen
CN1CCCC1c1cccnc1 (centres unmarked) [nicotine],histopathology,[1]; [7],dose-dependently inhibits
same,pancreatic MPO levels,[1]; [7],dose-dependently inhibits
same,pancreatic edema,[1]; [7],dose-dependently inhibits
same,serum amylase,[1]; [7],dose-dependently inhibits
O=P(O)(O)O [sodium phosphate],"pancreatic injury (survival, pancreatic edema)",[4],protected
same,mortality of ethanol-treated mice on the low phosphate diet,"[5]; sodium phosphate 50 mg/kg orogastric gavage daily for 5 days, ethanol 3 mg/kg daily for 5 days",significantly reduced
caerulein,ATP production,[2]; [8],reduced ATP production
same,mitochondrial membrane potential (TMRE fluorescence),[2]; [8],caused mitochondrial depolarization
phosphate,"caerulein-induced damage (release of trypsin, IL-1β and LDH)",[2],improved
same,Yoda1-stimulated LDH release,Piezol; phosphate supplementation,reduced
same,Yoda1-stimulated elevations in [Ca2+]i,Piezol; phosphate supplementation,reduced
same,ethanol-induced injury,"[5]; mice on low phosphate diet, sodium phosphate 50 mg/kg gavage daily for 5 days",protects
